Results from PMC5103075, “An immunostimulatory dual-functional nanocarrier that improves cancer immunochemotherapy” (Nature Communications, 2016).
≈ marks a conversion by molar mass, not a printed value. Where two headings read alike, the source gives them in different places.

How the values were obtained:
4T1.2 cells = assay: MTT cytotoxicity in 4T1.2 cells; format: cell-based, mouse; details: 4T1.2, 72 h; for IC50: means±s.e.m.
Experimental: (§1) 4T1.2 or PC3 cells at 2,000 cells/well were seeded in 96-well plates, respectively. […] After 3 days of incubation, 20 μl of 3-(4, 5-dimethylthiazol-2-yl)-2,5-diphenyltetrazoliumbromide (MTT) in DPBS (5 mg ml^−1) was added to each well and cells were further incubated for 2 h. Medium was removed and MTT formazan crystals were solubilized by 100 μl of DMSO per well. Absorbance of each well was measured with a microplate reader at wavelength of 550 nm. Untreated wells were used as controls. Cell viability was calculated as ((ODtreated−ODblank)/(ODcontrol−ODblank) × 100%).

PC3 cells = assay: MTT cytotoxicity in PC3 cells; format: cell-based; details: Homo sapiens, PC-3, PC3, 72 h, means±s.e.m.
Experimental: as §1

Structure (SMILES)	Cytotoxicity (tumour cell growth inhibition) (4T1.2 cells; Fig. 3d)	IC50 (4T1.2 cells; Mus musculus, read-out: IC50)	IC50 (PC3 cells)	IC50 (4T1.2 cells)
CC(=O)O[C@H]1C(=O)[C@@]2(C)[C@H]([C@H](OC(=O)c3ccccc3)[C@]3(O)C[C@H](OC(=O)[C@H](O)[C@@H](NC(=O)c4ccccc4)c4ccccc4)C(C)=C1C3(C)C)[C@]1(OC(C)=O)CO[C@@H]1C[C@@H]2O [PTX, Paclitaxel]	inhibited the tumour cell growth in a concentration-dependent manner	0.245 ± 0.0211 mg/L (≈ 0.286 µM)	0.101 ± 0.0112 mg/L (≈ 0.119 µM)	
COc1cccc2c1C(=O)c1c(O)c3c(c(O)c1C2=O)C[C@@](O)(C(=O)CO)C[C@@H]3O[C@H]1C[C@H](N)[C@H](O)[C@H](C)O1 [DOX, doxorubicin]				0.2686 ± 0.02728 mg/L (≈ 0.494 µM)
